SMILES strings stand for the structures.

Data set [1] has as its system male Wistar rats. The data set can be described thus: Morris Water Maze (MWM), scopolamine-induced impairment of spatial learning and memory. It counts as in vivo, rat. From the text: The Morris Water Maze (MWM) is the favored test in behavioral neuroscience for the study of hippocampal-dependent learning and memory (see Morris R G: Developments of a Water Maze procedure for studying spatial learning in the rat; J. Neurosci. Meth. 1984 11 47-60). It is a standardized behavioral task to test spatial navigation in rodents, and is a highly sensitive test to assess cognition in animals.
In the MWM performance animals have to remember the position of a submerged platform (10×10 cm) within a circular (Ø 150 cm) water tank using visual spatial cues. A number of eight (n=8) male Wistar rats were used for each group in each experiment. In four trials per day, for four consecutive acquisition days, they are released from different starting points close to the wall of the tank to find their way to the submerged platform. Spatial learning abilty is evaluated by latency to locate the platform.
This learning impairment was reversed by 30 mg/kg of Compound 1 of the invention (i.p. administration 30 minutes prior to test start).

The melting point is the temperature, or range, at which the solid turns liquid. For `COc1ccc(Cl)cc1NC(=O)Nc1ccc([N+](=O)[O-])cc1O`, the melting point was in the range of 225 to 226 °C.
The compound `O=C(Nc1cccc(C(F)(F)F)c1)Nc1c(O)cccc1[N+](=O)[O-]` showed a melting point of 174 to 175 °C.
For `Nc1cc(Cl)c(Cl)cc1NC(=O)Nc1cc(C(F)(F)F)ccc1Cl`, the melting point lay within 207 to 209 °C.
Compound `O=C(Nc1cccc(C(F)(F)F)c1)Nc1ccc(O)c(Cl)c1` displayed a melting point of 194 to 196 °C.
Compound `Cc1cc(O)ccc1NC(=O)Nc1cccc(C(F)(F)F)c1` registered a melting point of 185 to 186 °C.
In turn, `O=C(Nc1cccc(C(F)(F)F)c1)Nc1cc(Cl)c(O)c(Cl)c1` displayed a melting point of 215 to 218 °C.
With `O=C(Nc1cc(Cl)c(O)c(Cl)c1)Nc1cc(C(F)(F)F)ccc1Cl`, the melting point lay in the range of 213 to 221 °C.
`O=C(Nc1cccc(-c2ccccc2)c1)Nc1cc(Cl)c(O)c(Cl)c1` yielded a melting point of 252 to 253 °C.
Consider `O=C(Nc1ccc(-c2ccccc2)cc1)Nc1cc(Cl)c(O)c(Cl)c1`, for which the melting point is 249 to 251 °C.
`O=C(Nc1ccc(-c2ccccc2)cc1)Nc1cc(Cl)ccc1O` yielded a melting point of 191 to 192 °C.
As for `Cc1cc(O)cc(NC(=O)Nc2cc(C(F)(F)F)ccc2Cl)c1`, the melting point is 190 to 192 °C.
Regarding `Cc1cc(O)cc(NC(=O)Nc2cccc(C(F)(F)F)c2)c1`, the melting point lay in the range of 188 to 190 °C.
Compound `Cc1cc(O)ccc1NC(=O)Nc1cc(C(F)(F)F)ccc1Cl` came in with a melting point of 210 to 211 °C.
On to `COc1ccc(Cl)cc1NC(=O)Nc1cc(C(F)(F)F)ccc1Cl`, for which the melting point was in the range of 172 to 176 °C.
Turning to `O=C(Nc1cc(Cl)ccc1O)Nc1cc(C(F)(F)F)ccc1Cl` [Compound 1, N-(3-Chloro-6-hydroxy-phenyl)-N′-(2-chloro-5-trifluoromethyl-phenyl)urea], in data set [1] (30 mg/kg i.p. 30 minutes prior to test start, with 0.1 mg/kg Scopolamine s.c., four trials per day, four days), the “Reversal of scopolamine-induced learning impairment (latency to locate the platform)” value is given as “reversed”.
With `CN1[C@@H]2C[C@@H](OC(=O)[C@H](CO)c3ccccc3)C[C@H]1[C@@H]1O[C@@H]12` [Scopolamine, reference compound], the “Effect on spatial reference memory as measured in MWM (latency to locate the platform)” value in data set [1] (s.c. administration 30 minutes prior to test start) is given as “significantly impairs”.

Values taken from patent US20070142450A1, “Novel urea derivatives and their medical use” (priority 2004, published 2007).
